Patent publication US20210345656A1, “HIGH NICOTINE ABSORPTION” (Fertin Pharma A/S, priority 2017, published 2021)

Details: nicotine concentration increased from 100 microgram/mL to 14,000 microgram/mL

With `CN1CCCC1c1cccnc1` (stereo not shown) [nicotine] as the molecule, how does the “Change of permeability of nicotine across the buccal mucosa” value read?
Its value is “decrease of about a factor of two”.
